Reference: PubChem BioAssay (NCI)
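The compound was tested at five concentrations on cells cultured in 96-well plates, with a 48-hour exposure period. GI50 = concentration required for 50% inhibition of growth. TGI: concentration producing complete growth inhibition.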

Legend:
Assay in all cases: NCI tumour cell line growth inhibition, 48 h
HT29 colon = test system: HT29 colon
OVCAR-3 ovarian = test system: OVCAR-3 ovarian
HL-60(TB) leukemia = test system: HL-60(TB) leukemia
A498 renal = test system: A498 renal
K-562 leukemia = test system: K-562 leukemia
ACHN renal = test system: ACHN renal
HS 578T breast = test system: HS 578T breast
MALME-3M melanoma = test system: MALME-3M melanoma
UACC-62 melanoma = test system: UACC-62 melanoma
NCI-H460 lung = test system: NCI-H460 lung
LOX IMVI melanoma = test system: LOX IMVI melanoma
CCRF-CEM leukemia = test system: CCRF-CEM leukemia
HOP-62 NSCLC = test system: HOP-62 NSCLC
UACC-257 melanoma = test system: UACC-257 melanoma
T-47D breast = test system: T-47D breast
SK-MEL-5 melanoma = test system: SK-MEL-5 melanoma
HOP-92 NSCLC = test system: HOP-92 NSCLC
KM12 colon = test system: KM12 colon
SF-295 CNS = test system: SF-295 CNS
DU-145 prostate = test system: DU-145 prostate
SN12C renal = test system: SN12C renal
MDA-MB-231 breast = test system: MDA-MB-231 breast
OVCAR-4 ovarian = test system: OVCAR-4 ovarian
SK-MEL-28 melanoma = test system: SK-MEL-28 melanoma
SW-620 colon = test system: SW-620 colon
NCI/ADR-RES ovarian = test system: NCI/ADR-RES ovarian
RPMI-8226 leukemia = test system: RPMI-8226 leukemia
BT-549 breast = test system: BT-549 breast
SF-268 CNS = test system: SF-268 CNS
MOLT-4 leukemia = test system: MOLT-4 leukemia
CAKI-1 renal = test system: CAKI-1 renal
IGROV1 ovarian = test system: IGROV1 ovarian
HCC-2998 colon = test system: HCC-2998 colon
HCT-116 colon = test system: HCT-116 colon
SNB-19 CNS = test system: SNB-19 CNS
U251 CNS = test system: U251 CNS
RXF 393 renal = test system: RXF 393 renal
COLO 205 colon = test system: COLO 205 colon
PC-3 prostate = test system: PC-3 prostate
TK-10 renal = test system: TK-10 renal
MDA-MB-435 = test system: MDA-MB-435
NCI-H226 lung = test system: NCI-H226 lung
SNB-75 CNS = test system: SNB-75 CNS
786-0 renal = test system: 786-0 renal
SR leukemia = test system: SR leukemia
SK-OV-3 ovarian = test system: SK-OV-3 ovarian
MDA-MB-468 breast = test system: MDA-MB-468 breast
UO-31 renal = test system: UO-31 renal
EKVX NSCLC = test system: EKVX NSCLC
SF-539 CNS = test system: SF-539 CNS
OVCAR-5 ovarian = test system: OVCAR-5 ovarian
NCI-H23 lung = test system: NCI-H23 lung
M14 melanoma = test system: M14 melanoma
SK-MEL-2 melanoma = test system: SK-MEL-2 melanoma
MCF7 breast = test system: MCF7 breast
HCT-15 colon = test system: HCT-15 colon
NCI-H522 lung = test system: NCI-H522 lung

Q: `COc1cc2c3c(n(CCCN4CCC[C@@H]4CO)c(=O)c2cc1OC)-c1cc2c(cc1C3=O)OCO2` was tested. Which GI50 (HT29 colon) did it give?
A: 1070 nM

Q: And the TGI (HT29 colon)?
A: 2410 nM

Q: What about the GI50 (OVCAR-3 ovarian) of the same compound?
A: 1350 nM

Q: And the TGI (OVCAR-3 ovarian)?
A: 2910 nM

Q: And the GI50 (HL-60(TB) leukemia)?
A: 871 nM

Q: And the TGI (HL-60(TB) leukemia)?
A: 3110 nM

Q: What about the GI50 (A498 renal) of the same compound?
A: 14000 nM

Q: What about the TGI (A498 renal) of the same compound?
A: 28300 nM

Q: And the GI50 (K-562 leukemia)?
A: 1270 nM

Q: What about the TGI (K-562 leukemia) of the same compound?
A: > 100000 nM

Q: And the GI50 (ACHN renal)?
A: 293 nM

Q: What about the TGI (ACHN renal) of the same compound?
A: 1320 nM

Q: And the GI50 (HS 578T breast)?
A: 4570 nM

Q: And the TGI (HS 578T breast)?
A: 13000 nM

Q: And the GI50 (MALME-3M melanoma)?
A: 1370 nM

Q: What about the TGI (MALME-3M melanoma) of the same compound?
A: 2830 nM

Q: What about the GI50 (UACC-62 melanoma) of the same compound?
A: 305 nM

Q: And the TGI (UACC-62 melanoma)?
A: 9230 nM

Q: What about the GI50 (NCI-H460 lung) of the same compound?
A: 84.1 nM

Q: And the TGI (NCI-H460 lung)?
A: 1300 nM

Q: And the GI50 (LOX IMVI melanoma)?
A: 226 nM

Q: And the TGI (LOX IMVI melanoma)?
A: 1610 nM

Q: And the GI50 (CCRF-CEM leukemia)?
A: 27 nM

Q: And the TGI (CCRF-CEM leukemia)?
A: 2260 nM

Q: What about the GI50 (HOP-62 NSCLC) of the same compound?
A: 191 nM

Q: What about the TGI (HOP-62 NSCLC) of the same compound?
A: 1680 nM

Q: And the GI50 (UACC-257 melanoma)?
A: 12000 nM

Q: What about the TGI (UACC-257 melanoma) of the same compound?
A: 28700 nM

Q: What about the GI50 (T-47D breast) of the same compound?
A: 576 nM

Q: And the TGI (T-47D breast)?
A: 19100 nM

Q: And the GI50 (SK-MEL-5 melanoma)?
A: 966 nM

Q: What about the TGI (SK-MEL-5 melanoma) of the same compound?
A: 12800 nM

Q: And the GI50 (HOP-92 NSCLC)?
A: 4270 nM

Q: And the TGI (HOP-92 NSCLC)?
A: 9630 nM

Q: What about the GI50 (KM12 colon) of the same compound?
A: 1300 nM

Q: And the TGI (KM12 colon)?
A: 2910 nM

Q: And the GI50 (SF-295 CNS)?
A: 91.3 nM

Q: And the TGI (SF-295 CNS)?
A: 1470 nM

Q: And the GI50 (DU-145 prostate)?
A: 223 nM

Q: What about the TGI (DU-145 prostate) of the same compound?
A: 1710 nM

Q: And the GI50 (SN12C renal)?
A: 461 nM

Q: And the TGI (SN12C renal)?
A: 1810 nM

Q: And the GI50 (MDA-MB-231 breast)?
A: 1380 nM

Q: What about the TGI (MDA-MB-231 breast) of the same compound?
A: 2750 nM

Q: What about the GI50 (OVCAR-4 ovarian) of the same compound?
A: 1700 nM

Q: And the TGI (OVCAR-4 ovarian)?
A: 3330 nM

Q: What about the GI50 (SK-MEL-28 melanoma) of the same compound?
A: 1650 nM

Q: And the TGI (SK-MEL-28 melanoma)?
A: 3150 nM

Q: And the GI50 (SW-620 colon)?
A: 399 nM

Q: And the TGI (SW-620 colon)?
A: 2150 nM

Q: What about the GI50 (NCI/ADR-RES ovarian) of the same compound?
A: 356 nM

Q: What about the TGI (NCI/ADR-RES ovarian) of the same compound?
A: 2210 nM

Q: What about the GI50 (RPMI-8226 leukemia) of the same compound?
A: 688 nM

Q: And the TGI (RPMI-8226 leukemia)?
A: 3950 nM

Q: What about the GI50 (BT-549 breast) of the same compound?
A: 1370 nM

Q: What about the TGI (BT-549 breast) of the same compound?
A: 15500 nM

Q: And the GI50 (SF-268 CNS)?
A: 404 nM

Q: And the TGI (SF-268 CNS)?
A: 2280 nM

Q: What about the GI50 (MOLT-4 leukemia) of the same compound?
A: < 23.3 nM

Q: And the TGI (MOLT-4 leukemia)?
A: 4130 nM

Q: And the GI50 (CAKI-1 renal)?
A: 344 nM

Q: What about the TGI (CAKI-1 renal) of the same compound?
A: 4960 nM

Q: What about the GI50 (IGROV1 ovarian) of the same compound?
A: 1310 nM

Q: And the TGI (IGROV1 ovarian)?
A: 2640 nM

Q: What about the GI50 (HCC-2998 colon) of the same compound?
A: 1400 nM

Q: What about the TGI (HCC-2998 colon) of the same compound?
A: 2690 nM

Q: What about the GI50 (HCT-116 colon) of the same compound?
A: 451 nM

Q: And the TGI (HCT-116 colon)?
A: 2050 nM

Q: What about the GI50 (SNB-19 CNS) of the same compound?
A: 408 nM

Q: And the TGI (SNB-19 CNS)?
A: 1900 nM

Q: And the GI50 (U251 CNS)?
A: 358 nM

Q: What about the TGI (U251 CNS) of the same compound?
A: 2200 nM

Q: And the GI50 (RXF 393 renal)?
A: 966 nM

Q: And the TGI (RXF 393 renal)?
A: 2560 nM

Q: What about the GI50 (COLO 205 colon) of the same compound?
A: 1230 nM

Q: And the TGI (COLO 205 colon)?
A: 5270 nM

Q: And the GI50 (PC-3 prostate)?
A: 1180 nM

Q: And the TGI (PC-3 prostate)?
A: 2940 nM

Q: And the GI50 (TK-10 renal)?
A: 16200 nM

Q: What about the TGI (TK-10 renal) of the same compound?
A: 30600 nM

Q: What about the GI50 (MDA-MB-435) of the same compound?
A: 1220 nM

Q: What about the TGI (MDA-MB-435) of the same compound?
A: 2540 nM

Q: What about the GI50 (NCI-H226 lung) of the same compound?
A: 771 nM

Q: What about the TGI (NCI-H226 lung) of the same compound?
A: 2620 nM

Q: What about the GI50 (SNB-75 CNS) of the same compound?
A: 630 nM

Q: And the TGI (SNB-75 CNS)?
A: 5050 nM

Q: And the GI50 (786-0 renal)?
A: 647 nM

Q: And the TGI (786-0 renal)?
A: 1810 nM

Q: And the GI50 (SR leukemia)?
A: 214 nM

Q: What about the TGI (SR leukemia) of the same compound?
A: > 100000 nM

Q: And the GI50 (SK-OV-3 ovarian)?
A: 520 nM

Q: And the TGI (SK-OV-3 ovarian)?
A: 10300 nM

Q: What about the GI50 (MDA-MB-468 breast) of the same compound?
A: 318 nM

Q: What about the TGI (MDA-MB-468 breast) of the same compound?
A: 1280 nM

Q: What about the GI50 (UO-31 renal) of the same compound?
A: 762 nM

Q: And the TGI (UO-31 renal)?
A: 2140 nM

Q: What about the GI50 (EKVX NSCLC) of the same compound?
A: 1440 nM

Q: What about the TGI (EKVX NSCLC) of the same compound?
A: 2880 nM

Q: And the GI50 (SF-539 CNS)?
A: 267 nM

Q: And the TGI (SF-539 CNS)?
A: 1150 nM

Q: What about the GI50 (OVCAR-5 ovarian) of the same compound?
A: 1460 nM

Q: And the TGI (OVCAR-5 ovarian)?
A: 2800 nM

Q: What about the GI50 (NCI-H23 lung) of the same compound?
A: 207 nM

Q: What about the TGI (NCI-H23 lung) of the same compound?
A: 1520 nM

Q: What about the GI50 (M14 melanoma) of the same compound?
A: 473 nM

Q: What about the TGI (M14 melanoma) of the same compound?
A: 1910 nM

Q: What about the GI50 (SK-MEL-2 melanoma) of the same compound?
A: 16000 nM

Q: What about the TGI (SK-MEL-2 melanoma) of the same compound?
A: 34300 nM

Q: And the GI50 (MCF7 breast)?
A: 41.1 nM

Q: What about the TGI (MCF7 breast) of the same compound?
A: 1450 nM

Q: And the GI50 (HCT-15 colon)?
A: 1260 nM

Q: What about the TGI (HCT-15 colon) of the same compound?
A: 2580 nM

Q: And the GI50 (NCI-H522 lung)?
A: 3050 nM

Q: And the TGI (NCI-H522 lung)?
A: 20800 nM
